“Also recorded” adds a separate entry of the source.
Tests used:
RAGE = experiment: Western blot RAGE in subregions of mPFC and NAc; type: in vivo, Male P rats
Method: (§1) All P rats were euthanized by CO2 inhalation and decapitated with a guillotine 24 hours after the final i.p. injection was administered on Day 6 of Week 6. Brains were removed and immediately frozen on dry ice and stored at −80° C. The mPFC subregions (infralimbic cortex and prelimbic cortex) and NAc subregions (core and shell) were dissected using a cryostat machine kept at −20° C. Surgical blades were used to dissect all brain regions following visualized landmarks using the stereotaxic coordinates provided by Paxinos and colleague's rat brain stereotactic atlas. All brain regions were stored in −80° C. Western Blot analyses.
(§2) Western blot was performed to determine the expression of BDNF, TNF-α, RAGE, HMGβ-1, and β-tubulin in the subregions of mPFC and NAc as preformed in previous studies.
(§3) Brain samples were lysed with a lysing buffer containing protease inhibitors. The amount of protein in each sample was quantified using a detergent compatible protein assay (Bio-Rad, Hercules, CA, USA). Polyacrylamide gels (10%) were loaded with the lysate mixture, and proteins were separated using gel electrophoresis for 1 hour. Proteins were then transferred from the gels onto Polyvinylidene difluoride (PVDF) membranes (BioRad). After transfer, membranes were incubated for 30 minutes in a mixture of nonfat milk in 1×Tris-buffered saline with Tween-20 (TBST) at room temperature. Membranes were then incubated at 4° C. for 24 hours with primary antibodies: anti-rabbit BDNF (1:1000, Abeam, #ab108319), anti-rabbit TNF-α (1:500, Abeam, #ab9739), anti-rabbit HMGβ-1 (1:500, Abeam, #ab18256), and anti-rabbit RAGE (1:1000, Abeam, #ab37407). Anti-mouse-β-tubulin (1:1000, Cell Signaling Technology, #D71G9) was used as a loading control antibody. After incubating for 24 hours, secondary antibody such as donkey anti-rabbit (1:4000, Invitrogen, #31458) or anti-mouse (1:4000, Cell Signaling, #7076S) was added to the membrane for 1 hour at room temperature. The membranes were then washed with 1×TBST three times for 5 minutes each and then dried. Membranes were then incubated in chemiluminescent reagents (Super Signal West Pico, Pierce Inc.) for 2 minutes. Blot images were developed using ChemiDoc. Imaging System and ImageJ software version 1.53a were used to quantify and analyze the expression of BDNF, TNF-α, RAGE, HMGβ-1, and β-tubulin.
(§4) The data for the water/saline control group were expressed as 100% based on the values corresponding to the ethanol/saline and ethanol/MC-100093 groups for each set of blotting. Thus, the expression of selected proteins for each group (ethanol/saline group or ethanol/MC-100093 group) was calculated relative to the water/saline control group being set to 100%.
(§5) Statistical analyses were performed using GraphPad Prism Version 10. Two-way repeated measures ANOVA followed by Bonferroni post-hoc tests were used to compare water and ethanol intake, and body weight, amongst water group, ethanol/saline group and ethanol/MC-100093 group. A one-way ANOVA test was performed to compare the expression of the studied proteins in selected brain regions in water/saline, ethanol/saline and ethanol/MC-100093 groups. Statistical significance was determined by a p-value of or less than 0.05.

plasma protein = conditions: cited from earlier work
BDNF = experiment: Western blot BDNF in subregions of mPFC and NAc; type: in vivo, Male P rats
Method: as §1, §2, §3, §4, §5

[1] = cited from earlier work
[2] = Ethanol drinking, further studies with MC-100093 100 mg/kg; type: in vivo, Male P rats
Method: We used an ethanol drinking paradigm as described previously by Alhaddad, et al. (2014). Briefly, animals started the experimental drinking procedure at age of 90 days. The animals had five weeks of exposure to continuous three-bottle choice drinking, 0%, 15% and 30%, v/v ethanol in water, available concurrently. Daily measurement of ethanol intake was performed (g of ethanol intake/kg of body weight/day). We measured the baseline ethanol drinking by average the intake during the last three weeks. Three groups of P rats (n=8-9/group) exposed to the five weeks ethanol exposure. At week 6, rats in each group received daily intraperitoneal injection of either MC-100093 at dose of 50 mg/kg (Ethanol-MC group), Ceftriaxone at dose of 200 mg/kg (Ethanol-CEF group, which also serves as positive control), or equivolume of saline vehicle (Ethanol group) for five days. This paradigm results in pharmacologically relevant blood alcohol concentration (50-200 mg %). Following the criteria for the development of ethanol dependence, rats whose average ethanol intake <4 g/kg/day were excluded from the study. Beside the ethanol exposed groups, another group of P rats (n=8) exposed to only water and food throughout the exposure procedures (control group).
Further studies were conducted to investigate the impact of MC-100093 at higher dose (100 mg/kg, i.p.) on ethanol consumption and glutamate transporter 1 (GLT-1) expression in medial prefrontal cortex (mPFC) subregions such as prelimbic mPFC (PL) and infralimbic mPFC (IL). Male P rats (n=16) were divided in three groups: a) Control water group was exposed to water only for 5 weeks and received i.p. saline on Week 6 for 5 days; b) Saline group was exposed to free choice of ethanol (15% and 30% and water) for 5 weeks, and received saline (i.p.) on Week 6 for 5 days; and c) MC-100093 group was exposed to free choice of ethanol for 5 weeks and received MC-100093 (100 mg/kg/day, i.p.) for 5 days on Week 6.

TNF-α = experiment: Western blot TNF-α in subregions of mPFC and NAc; type: in vivo, Male P rats
Method: as §1, §2, §3, §4, §5

[3] = 100 mg/kg i.p., compared to ethanol/saline group
[4] = post-treatment with MC-100093 100 mg/kg i.p., 100 mg/kg
[5] = ethanol/MC-100093 group (100 mg/kg i.p.) compared to water/saline and ethanol/saline groups

Question: With `C[C@@H](O)[C@H]1C(=O)N[C@@H]1[C@@H](C)C(=O)N1CCN(C)CC1` [MC-100093] as the molecule, how does the “Decrease in RAGE expression in the IL” value (RAGE; [3]) read?
Answer: 14%

Question: And the “Decrease in RAGE expression in the NAc core” value (RAGE; [3])?
Answer: 12%

Question: What about the “RAGE expression in the NAc shell” value (RAGE; [3]) of the same molecule?
Answer: decreased RAGE expression

Question: What about the “RAGE expression in the PL” value (RAGE; [3]) of the same molecule?
Answer: decreased RAGE expression

Question: And the “RAGE expression in subregions of mPFC and NAc (summary)” value (RAGE; [4])?
Answer: normalized RAGE expression; also recorded: attenuated ethanol-induced increase in receptor for advanced glycation end products (RAGE)

Question: And the “Binding to plasma protein” value (plasma protein)?
Answer: low binding to plasma protein

Question: What about the “BDNF expression in the NAc shell” value (BDNF; [3]) of the same molecule?
Answer: significant increase in BDNF expression

Question: What about the “Increase in BDNF expression in the NAc core” value (BDNF; 100 mg/kg i.p., compared to water/saline and ethanol/saline groups) of the same molecule?
Answer: 11%

Question: And the “Increase in BDNF expression in the IL (mPFC)” value (BDNF; [5])?
Answer: 40%

Question: What about the “Increase in BDNF expression in the PL (mPFC)” value (BDNF; [5]) of the same molecule?
Answer: 27%

Question: What about the “BDNF expression in the subregions of NAc and mPFC (summary)” value (BDNF; male P rats, 100 mg/kg i.p., 100 mg/kg) of the same molecule?
Answer: attenuated ethanol-induced downregulation of brain derived neurotrophic factor (BDNF) expression

Question: And the Aqueous solubility [1]?
Answer: high aqueous solubility

Question: What about the “Reduction in ethanol consumption as compared to control vehicle group” value ([2]; MC-100093 100 mg/kg i.p.) of the same molecule?
Answer: about 50%

Question: What about the “Body weight (grams)” value ([2]; MC-100093 100 mg/kg i.p. 5 days) of the same molecule?
Answer: no significant effects

Question: What about the “Water intake (mL/day)” value ([2]; MC-100093 100 mg/kg i.p. 5 days, vs ethanol/saline, 100 mg/kg) of the same molecule?
Answer: significant increase in water intake; also recorded: increase in water consumption was observed on Days 1-5

Question: What about the “Ethanol consumption (g/kg/24 hr)” value ([2]; male P rats, MC-100093 100 mg/kg i.p. 5 days on Week 6, vs ethanol/saline, 100 mg/kg) of the same molecule?
Answer: attenuated ethanol intake; also recorded: significantly reduced ethanol consumption on Day 1, 3, 4, and 5; also recorded: reduced ethanol intake on Days 2, 4, 5, 6; also recorded: effect similar to that of ceftriaxone

Question: What about the Ethanol preference ([2]; male P rats, MC-100093 100 mg/kg/day i.p. 5 days) of the same molecule?
Answer: decreased ethanol preference

Question: What about the “TNF-α expression in the IL” value (TNF-α; [3]) of the same molecule?
Answer: decreased significantly TNF-α expression

Question: What about the “TNF-α expression in the NAc core” value (TNF-α; [3]) of the same molecule?
Answer: decreased significantly TNF-α expression

Question: And the “TNF-α expression in the NAc shell” value (TNF-α; [3])?
Answer: decreased TNF-α expression

Question: And the “TNF-α expression in the PL” value (TNF-α; [3])?
Answer: significantly decreased the expression of TNF-α

Question: And the “TNF-α expression in IL, PL, NAc core and NAc shell (summary)” value (TNF-α; [4])?
Answer: normalized TNF-α expression in all these brain regions; also recorded: attenuated ethanol-induced upregulation of pro-inflammatory cytokines such as TNF-a and HMGB1

Reference: patent US20250057808A1, “COMPOSITION COMPRISING BETA LACTAM FOR TREATING ALCOHOL DEPENDENCE AND ALCOHOL ASSOCIATED DISEASES OR CONDITIONS” (Temple University of the Commonwealth System of Higher …, priority 2023, published 2025)
